In patent US10214519B2, “Phosphatidylinositol 3-kinase inhibitors” (Gilead Sciences, Inc., priority 2016, dated 2019):

Biological target: PI3Kβ (Homo sapiens (Human), UniProt P42338)
Assay: PI3K isoform TR-FRET enzymatic assay (PI3Kβ)
Type: biochemical
Conditions: 2× Km ATP, 30 minutes at 25° C.
How it was run: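 IC50 came from four-parameter dose-response fits, normalized between DMSO and 1 μM wortmannin controls. The read-out was TR-FRET (615/665 nm) of PIP3 displacing fluorescent PIP3 from Europium GRP-1 after 10 mM EDTA termination. Compounds were incubated with purified heterodimeric PI3Kβ for 30 min at 25° C.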

Sequence of PI3Kβ (P42338 whole entry, canonical isoform): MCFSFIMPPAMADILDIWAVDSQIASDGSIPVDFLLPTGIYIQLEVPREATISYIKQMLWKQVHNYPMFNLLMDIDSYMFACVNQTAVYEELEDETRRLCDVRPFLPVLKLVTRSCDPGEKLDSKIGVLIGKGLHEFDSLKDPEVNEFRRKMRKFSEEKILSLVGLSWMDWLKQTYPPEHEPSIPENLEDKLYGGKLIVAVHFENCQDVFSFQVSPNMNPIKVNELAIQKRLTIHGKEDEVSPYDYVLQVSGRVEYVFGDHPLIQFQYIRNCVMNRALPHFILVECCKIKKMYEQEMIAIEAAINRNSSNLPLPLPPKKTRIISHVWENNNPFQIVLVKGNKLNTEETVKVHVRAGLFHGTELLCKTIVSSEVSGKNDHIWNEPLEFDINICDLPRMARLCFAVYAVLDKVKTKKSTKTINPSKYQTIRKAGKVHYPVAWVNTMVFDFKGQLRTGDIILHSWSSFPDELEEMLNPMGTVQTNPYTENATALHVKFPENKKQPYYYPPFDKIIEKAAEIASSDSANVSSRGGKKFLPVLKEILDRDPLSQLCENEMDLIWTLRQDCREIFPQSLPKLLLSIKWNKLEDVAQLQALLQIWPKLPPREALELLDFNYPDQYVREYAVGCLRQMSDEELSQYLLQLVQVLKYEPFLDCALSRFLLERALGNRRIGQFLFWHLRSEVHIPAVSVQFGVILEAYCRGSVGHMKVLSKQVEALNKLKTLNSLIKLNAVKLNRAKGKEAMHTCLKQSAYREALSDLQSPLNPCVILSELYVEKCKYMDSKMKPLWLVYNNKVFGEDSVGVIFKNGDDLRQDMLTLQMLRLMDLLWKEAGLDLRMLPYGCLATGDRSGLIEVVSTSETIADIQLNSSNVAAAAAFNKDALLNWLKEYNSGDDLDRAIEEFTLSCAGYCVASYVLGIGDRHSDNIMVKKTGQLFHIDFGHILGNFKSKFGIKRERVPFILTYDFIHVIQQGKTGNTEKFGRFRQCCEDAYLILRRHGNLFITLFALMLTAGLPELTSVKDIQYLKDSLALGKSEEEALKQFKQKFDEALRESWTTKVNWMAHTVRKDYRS
Sequence of PI3Kβ (P27986 whole entry partner, canonical isoform): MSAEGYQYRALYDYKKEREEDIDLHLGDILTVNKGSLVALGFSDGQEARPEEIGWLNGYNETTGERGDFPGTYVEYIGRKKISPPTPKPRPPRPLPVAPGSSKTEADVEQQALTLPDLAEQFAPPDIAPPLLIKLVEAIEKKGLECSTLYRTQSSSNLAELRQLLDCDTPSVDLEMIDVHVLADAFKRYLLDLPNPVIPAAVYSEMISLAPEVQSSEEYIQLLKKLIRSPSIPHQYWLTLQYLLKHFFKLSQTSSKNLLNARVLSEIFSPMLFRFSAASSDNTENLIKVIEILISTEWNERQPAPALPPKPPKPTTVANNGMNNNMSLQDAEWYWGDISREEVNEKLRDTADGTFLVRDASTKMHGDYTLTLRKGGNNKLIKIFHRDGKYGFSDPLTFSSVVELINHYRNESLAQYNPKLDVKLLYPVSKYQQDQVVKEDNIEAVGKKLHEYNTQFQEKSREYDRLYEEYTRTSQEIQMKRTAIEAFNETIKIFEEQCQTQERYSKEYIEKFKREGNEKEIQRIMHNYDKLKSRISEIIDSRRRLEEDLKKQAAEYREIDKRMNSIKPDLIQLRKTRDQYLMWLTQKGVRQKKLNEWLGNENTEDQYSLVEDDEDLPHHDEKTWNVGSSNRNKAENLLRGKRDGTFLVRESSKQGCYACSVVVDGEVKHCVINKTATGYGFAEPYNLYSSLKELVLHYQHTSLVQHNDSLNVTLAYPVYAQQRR

Row | SMILES | IC50 [nM]
1 | CCCc1nc2c(-c3nnc(C)[nH]3)cc(N3CCOCC3)cc2n1-c1ccnc2c(Cl)cccc12 [Example 46, 4-(1-(8-chloroquinolin-4-yl)-4-(5-methyl-4H-1,2,4-triazol-3-yl)-2-propyl-1H-benzo[d]imidazol-6-yl)morpholine] | 19
2 | Cc1nnc(-c2cc(N3CCOCC3)cc3c2nc(C2CC2)n3-c2ccnc3c(Cl)cccc23)[nH]1 [Example 47, 4-(1-(8-chloroquinolin-4-yl)-2-cyclopropyl-4-(5-methyl-4H-1,2,4-triazol-3-yl)-1H-benzo[d]imidazol-6-yl)morpholine] | 18
3 | CCCc1nc2c(-c3nnc[nH]3)cc(N3CCOCC3)cc2n1-c1ccnc2c(Cl)ccc(F)c12 [Example 48, 4-(1-(8-chloro-5-fluoroquinolin-4-yl)-2-propyl-4-(4H-1,2,4-triazol-3-yl)-1H-benzo[d]imidazol-6-yl)morpholine] | 18
4 | CCCc1nc2c(-c3nnc[nH]3)cc(N3CCOCC3)cc2n1-c1ccnc2c(F)c(F)ccc12 [Example 49, 4-(1-(7,8-difluoroquinolin-4-yl)-2-propyl-4-(4H-1,2,4-triazol-3-yl)-1H-benzo[d]imidazol-6-yl)morpholine] | 18
5 | CC(C)Cc1nc2c(-c3nnc[nH]3)cc(N3CCOCC3)cc2n1-c1ccnc2c(Cl)cccc12 [Example 50, 4-(1-(8-chloroquinolin-4-yl)-2-isobutyl-4-(4H-1,2,4-triazol-3-yl)-1H-benzo[d]imidazol-6-yl)morpholine] | 16
6 | Cc1nnc(-c2cc(N3CCOCC3)cc3c2nc(C)n3-c2ccnc3c(F)ccc(F)c23)[nH]1 [Example 51, 4-(1-(5,8-difluoroquinolin-4-yl)-2-methyl-4-(5-methyl-4H-1,2,4-triazol-3-yl)-1H-benzo[d]imidazol-6-yl)morpholine] | 15
7 | Cc1nnc(-c2cc(N3CCOCC3)cc3c2nc(C)n3-c2ccnc3c(Cl)c(F)ccc23)[nH]1 [Example 52, 4-(1-(8-chloro-7-fluoroquinolin-4-yl)-2-methyl-4-(5-methyl-4H-1,2,4-triazol-3-yl)-1H-benzo[d]imidazol-6-yl)morpholine] | 15
8 | Fc1ccc2c(-n3cnc4c(-c5nnc[nH]5)cc(N5CCOCC5)cc43)ccnc2c1 [Example 53, 4-(l-(7-fluoroquinolin-4-yl)-4-(4H-1,2,4-triazol-3-yl)-1H-benzo[d]imidazol-6-yl)morpholine] | 15
9 | FC1(c2nc3c(-c4nnc[nH]4)cc(N4CCOCC4)cc3n2-c2ccnc3c(Cl)cccc23)CC1 [Example 54, 4-(1-(8-chloroquinolin-4-yl)-2-(1-fluorocyclopropyl)-4-(4H-1,2,4-triazol-3-yl)-1H-benzo[d]imidazol-6-yl)morpholine] | 14
10 | CCc1nc2ccccc2c(-n2c(C)nc3c(-c4nnc[nH]4)cc(N4CCOCC4)cc32)c1C [Example 55, 4-[3-(2-ethyl-3-methylquinolin-4-yl)-2-methyl-7-(4H-1,2,4-triazol-3-yl)benzimidazol-5-yl]morpholine] | 27
11 | Cc1c(C2CC2)nc2ccccc2c1-n1c(C)nc2c(-c3nnc[nH]3)cc(N3CCOCC3)cc21 [Example 56, 4-[3-(2-cyclopropyl-3-methylquinolin-4-yl)-2-methyl-7-(4H-1,2,4-triazol-3-yl)benzimidazol-5-yl]morpholine] | 72
12 | Cc1nc2c(-c3nnc[nH]3)cc(N3CCOCC3)cc2n1-c1cc(-c2nnc[nH]2)nc2ccccc12 [Example 57, 4-[2-methyl-7-(4H-1,2,4-triazol-3-yl)-3-[2-(4H-1,2,4-triazol-3-yl)quinolin-4-yl]benzimidazol-5-yl]morpholine] | 55
13 | Cc1nc2c(-c3nnc[nH]3)cc(N3CCOCC3)cc2n1-c1cc(C(F)(F)F)nc2c(Cl)cccc12 [Example 58, 4-[3-[8-chloro-2-(trifluoromethyl)quinolin-4-yl]-2-methyl-7-(4H-1,2,4-triazol-3-yl)benzimidazol-5-yl]morpholine] | 62
14 | Cc1nc2c(-c3nnc[nH]3)cc(N3CCOCC3)cc2n1-c1cc(-c2ccccc2)nc2ccccc12 [Example 59, 4-[2-methyl-3-(2-phenylquinolin-4-yl)-7-(4H-1,2,4-triazol-3-yl)benzimidazol-5-yl]morpholine] | 130
15 | Cc1cc(-n2c(C)nc3c(-c4nnc[nH]4)cc(N4CCOCC4)cc32)c2cccc(C(F)(F)F)c2n1 [Example 60, 4-[2-methyl-3-[2-methyl-8-(trifluoromethyl)quinolin-4-yl]-7-(4H-1,2,4-triazol-3-yl)benzimidazol-5-yl]morpholine] | 30
16 | Cc1nc2c(F)cccc2c(-n2c(C)nc3c(-c4nnc[nH]4)cc(N4CCOCC4)cc32)c1C [Example 61, 4-[3-(8-fluoro-2,3-dimethylquinolin-4-yl)-2-methyl-7-(4H-1,2,4-triazol-3-yl)benzimidazol-5-yl]morpholine] | 27
17 | CCc1c(C)nc2ccccc2c1-n1c(C)nc2c(-c3nnc[nH]3)cc(N3CCOCC3)cc21 [Example 62, 4-[3-(3-ethyl-2-methylquinolin-4-yl)-2-methyl-7-(4H-1,2,4-triazol-3-yl)benzimidazol-5-yl]morpholine] | 23

Row | SMILES | IC50 [nM]
18 | Cc1cc(-n2c(C)nc3c(-c4nnc[nH]4)cc(N4CCOCC4)cc32)c2ccc(F)cc2n1 [Example 63, 4-[3-(7-fluoro-2-methylquinolin-4-yl)-2-methyl-7-(4H-1,2,4-triazol-3-yl)benzimidazol-5-yl]morpholine] | 28
19 | Cc1cc(-n2c(C)nc3c(-c4nnc[nH]4)cc(N4CCOCC4)cc32)c2cccc(Cl)c2n1 [Example 64, 4-[3-(8-chloro-2-methylquinolin-4-yl)-2-methyl-7-(4H-1,2,4-triazol-3-yl)benzimidazol-5-yl]morpholine] | 21
20 | Cc1cnc2ccccc2c1-n1c(C)nc2c(-c3nnc[nH]3)cc(N3CCOCC3)cc21 [Example 65, 4-[2-methyl-3-(3-methylquinolin-4-yl)-7-(4H-1,2,4-triazol-3-yl)benzimidazol-5-yl]morpholine] | 24
21 | Cc1nc2c(-c3nnc[nH]3)cc(N3CCOCC3)cc2n1-c1c(C2CC2)cnc2ccccc12 [Example 66, 4-[3-(3-cyclopropylquinolin-4-yl)-2-methyl-7-(4H-1,2,4-triazol-3-yl)benzimidazol-5-yl]morpholine] | 16
22 | Cc1nc2c(-c3nnc[nH]3)cc(N3CCOCC3)cc2n1-c1cc(C#N)nc2ccccc12 [Example 67, 4-[2-methyl-6-morpholin-4-yl-4-(4H-1,2,4-triazol-3-yl)benzimidazol-1-yl]quinoline-2-carbonitrile] | 99
23 | Cc1cnc2c(Cl)cccc2c1-n1c(C)nc2c(-c3nnc[nH]3)cc(N3CCOCC3)cc21 [Example 68, 4-[3-(8-chloro-3-methylquinolin-4-yl)-2-methyl-7-(4H-1,2,4-triazol-3-yl)benzimidazol-5-yl]morpholine] | 8
24 | Cc1cc(-n2c(C)nc3c(-c4nnc[nH]4)cc(N4CCOCC4)cc32)c2ccccc2n1 [Example 69, 4-[2-methyl-3-(2-methylquinolin-4-yl)-7-(4H-1,2,4-triazol-3-yl)benzimidazol-5-yl]morpholine] | 17
25 | Cc1nc2c(Cl)cccc2c(-n2c(C)nc3c(-c4nnc[nH]4)cc(N4CCOCC4)cc32)c1C [Example 70, 4-[3-(8-chloro-2,3-dimethylquinolin-4-yl)-2-methyl-7-(4H-1,2,4-triazol-3-yl)benzimidazol-5-yl]morpholine] | 36
26 | CCc1c(C)nc2ccccc2c1-n1cnc2c(-c3nnc[nH]3)cc(N3CCOCC3)cc21 [Example 71, 4-[3-(3-ethyl-2-methylquinolin-4-yl)-7-(4H-1,2,4-triazol-3-yl)benzimidazol-5-yl]morpholine] | 23
27 | CCc1nc2ccccc2c(-n2cnc3c(-c4nnc[nH]4)cc(N4CCOCC4)cc32)c1C [Example 72, 4-[3-(2-ethyl-3-methylquinolin-4-yl)-7-(4H-1,2,4-triazol-3-yl)benzimidazol-5-yl]morpholine] | 25
28 | Cc1cc(-n2c(C)nc3c(-c4nc(C)n[nH]4)cc(N4CCOCC4)cc32)c2ccccc2n1 [Example 73, 4-[2-methyl-3-(2-methylquinolin-4-yl)-7-(3-methyl-1H-1,2,4-triazol-5-yl)benzimidazol-5-yl]morpholine] | 78
29 | Cc1n[nH]c(-c2cc(N3CCOCC3)cc3c2nc(C)n3-c2c(C)cnc3ccccc23)n1 [Example 74, 4-[2-methyl-3-(3-methylquinolin-4-yl)-7-(3-methyl-1H-1,2,4-triazol-5-yl)benzimidazol-5-yl]morpholine] | 62
30 | CCc1c(C)nc2ccccc2c1-n1cnc2c(-c3nc(C)n[nH]3)cc(N3CCOCC3)cc21 [Example 75, 4-[3-(3-ethyl-2-methylquinolin-4-yl)-7-(3-methyl-1H-1,2,4-triazol-5-yl)benzimidazol-5-yl]morpholine] | 29
31 | CCc1nc2ccccc2c(-n2c(C)nc3c(-c4nc(C)n[nH]4)cc(N4CCOCC4)cc32)c1C [Example 76, 4-[3-(2-ethyl-3-methylquinolin-4-yl)-2-methyl-7-(3-methyl-1H-1,2,4-triazol-5-yl)benzimidazol-5-yl]morpholine] | 29
32 | Cc1cc(-n2c(C)nc3c(-c4nc(C)n[nH]4)cc(N4CCOCC4)cc32)c2cccc(C(F)(F)F)c2n1 [Example 77, 4-[2-methyl-7-(3-methyl-1H-1,2,4-triazol-5-yl)-3-[2-methyl-8-(trifluoromethyl)quinolin-4-yl]benzimidazol-5-yl]morpholine] | 97
33 | Cc1n[nH]c(-c2cc(N3CCOCC3)cc3c2nc(C)n3-c2c(C)cnc3c(Cl)cccc23)n1 [Example 78, 4-[3-(8-chloro-3-methylquinolin-4-yl)-2-methyl-7-(3-methyl-1H-1,2,4-triazol-5-yl)benzimidazol-5-yl]morpholine] | 27
34 | Cc1cc(-n2c(C)nc3c(-c4nc(C)n[nH]4)cc(N4CCOCC4)cc32)c2ccc(F)cc2n1 [Example 79, 4-[3-(7-fluoro-2-methylquinolin-4-yl)-2-methyl-7-(3-methyl-1H-1,2,4-triazol-5-yl)benzimidazol-5-yl]morpholine] | 110
